Here are results for twelve molecules from patent publication US6911429B2, “Compositions and methods for treating cellular response to injury and other proliferating cell disorders regulated by hyaladherin and hyaluronans” (Transition Therapeutics Inc., priority 1999, dated 2005).

In one data set the test system is MDA231 cells. Nature of the data set: in vitro invasion of MDA231 cells. The class given is cell-based, human.
Data set [1] deals with RHAMMv4 overexpressing cells. Nature of the data set: cell migration into wounds / wound repair of RHAMMv4 overexpressing cells. The class given is cell-based. The text has this: (§1) To further illustrate the relationship between RHAMM, erk activity and podosome formation in transient stage cells, podosome formation is shown to be inhibited by inhibitors of erk activity. […] Overexpression of RHAMMv4 results in a sustained high production of podosomes, detected by the marker protein cortactin (A). […] Overexpression of RHAMMv4 enhances cell migration into wounds (D) compared to the parent 10T1/2 fibroblast line that produces little RHAMMv4 (E).

Data set [2] concerns RHAMMv4 overexpressing cells. The data set is described as follows: podosome formation in RHAMMv4 overexpressing cells (cortactin marker). The following applies: RHAMMv4 overexpression. The class given is cell-based.
From the text: as §1

Data set [3] has as its system MDA231 human breast cancer cells. The data set is described as follows: cell motility of MDA231 breast cancer cells. The class given is cell-based.
The next data set concerns NOD mice. Nature of the data set: NOD mouse model of type I diabetes mellitus. The class given is in vivo. As to conditions: 5 mg/kg i.p. three times a week for 23 weeks. The procedure: There are different colonies of NOD mice and there can be some variability between the colonies. The colony used develops the disease between 15-20 weeks of age and there is a 70-80% incidence of diabetes mellitus. The mice treated were divided into two groups of 10 animals; the first group being treated with P-16 peptide and the other group comprising of the control group, which was treated with saline. Once the NOD mice were 5 weeks old, the P-16 peptide was injected three times a week interperitoneally at a dose of 5 mg/kg for 23 weeks. The untreated mice and five mice from the treated group were sacrificed at 28 weeks of age. The remaining five mice from the treated group were taken off the peptide treatment at 28 weeks of age and were assessed for the disease after 16 weeks.
There are different colonies of NOD mice and there can be some variability between the colonies. The colony used develops the disease between 15-20 weeks of age and there is a 70-80% incidence of diabetes mellitus. The mice treated were divided into three groups of 10 animals; the first two groups being treated with S-3 and S-7 peptides, and the third group comprising of the control group, which was treated with saline. Once the NOD mice were 5 weeks old, the S-3 and S-7 peptides were injected three times a week intraperitoneally at a dose of 0.1 mg/kg for 23 weeks.

The subject of the next data set is ND4 transgenic mice. Nature of the data set: ND4 transgenic mouse model of multiple sclerosis (demyelination clinical signs). The following applies: 10 mg/kg intraperitoneally three times per week. In kind it is in vivo. As to the method:
Briefly, transgenic mice (ND 4) bearing 70 copies of the transgene for DM20, a myelin proteolipid protein, were utilized for assignment of scores based upon clinical signs of demyelination. Clinical signs which were assessed included general shaking, seizures, head jerk, hind-limb and tail shiver, unsteadiness, wobbly gait and limp tail. Within each sign score between 0-4 was given: where zero score means absent and score 4 means constant and uncontrollable appearance of the sign of the disease. Experimental groups of mice were divided into 4; each group contained 5 animals: one normal, one ND 4 mouse untreated and three ND 4 mice treated with RHAMM mimetic—P-peptide. Animals were treated three times per week with 10 mg/kg of P-peptide intraperitonealy. Peptide was resuspended in 300 μl of PBS.
The severity of the clinical signs increase until maximum around 6 months with animals dying around 8 to 9 months of age. The clinical signs assessed include general shaking, seizures, head jerk, hind limb and tail shiver, wobbly gait and limp tail. The scale of zero (absence) to four (constant and uncontrollable movements) was used for each of the clinical signs. […]

A further data set concerns EAE in SJL/J mice. Nature of the data set: EAE mouse model for multiple sclerosis. In kind it is in vivo. As to conditions: 5 mg/kg i.p. daily; failed to reach statistical significance. The procedure:
Acute EAE was induced by immunization of 3 months old SJL/J female mice (Jackson Lab.; Bar Harbor, Me.) with the MBP and PTX pertussis toxin. Each animal received a sub-cutaneous injection at tail base of 200 μg MBP in 0.1 ml of CFA and received an intravenous injection of 200 ng of PTX. Pertussis toxin was injected again 48 hours later. Mice (4 animals per group) were treated with one of the following treatments through intraperitoneal injections: P-32 peptide at a dose of 5 mg/kg daily; S-7 peptide at a dose of 0.1 mg/kg daily starting on the day of first immunization. Treatment was stopped at time of sacrifice. Mice were monitored daily from day 7 after immunization for clinical signs of EAE and were scored on a scale of 0 to 5. A score of 0 represented the absence of signs while a score of 5 was given to moribund animals.

Data set [4] can be described thus: binding to hyaluronic acid (HA). The text has this:
The present invention provides a method of similar sensitivity but which is cheaper and more reliable. The method is based on using HA binding partners discovered using the techniques described above for detecting RHAMM binding partners. Using a phage display library to bind to biotinylated HA permitted identification of five particular species of HA binding motifs described in SEQ. ID NOS: 6-10. This was accomplished by isolating phage that attached to HA which were further isolated, rescreened twice and recloned. The clones were then bound to biotinylated HA-sepharose beads and only those phage that could be released with unlabeled HA were retrieved, recloned and sequenced. Five clones comprising the sequences identified above were detected. These sequences all bind to HA and are useful for detecting HA in serum and tissues in an assay described below.

Another data set deals with excisional skin wound. The data set is described as follows: rat punch biopsy excisional skin wound model. In kind it is in vivo. As to conditions: local application.
Data set [5] has as its system bleomycin-induced lung fibrosis. The data set is described as follows: bleomycin-induced lung injury / fibrosis model. In kind it is in vivo. The text has this:
As described in more detail below, the RHAMM peptide mimetics prevent these pathological events, particularly recruitment and activation of macrophages, from occurring following bleomycin-induced lung fibrosis (FIG. 32). In particular, the infiltration of inflammatory cells and local responses such as fibrosis is completely absent with treatment. […] Therefore, these reagents should be effective for treating lung diseases that involve recruiting macrophages and inflammatory cells, as well as fibrosis. FIG. 34 illustrates motility of BAL cells four days after injury in response to administration of RHAMM peptides. […] Values represent mean and standard error with three animals studied for each condition and at least 20 cells tracked per animal studied. Increased N-acetyl-β-glucosamimidase activity is a known marker for fibrosis in lung tissue. […] Briefly, bleomycin injury results in an increased glucosamimidase activity (* p<0.01 versus controls and saline animals). […] Values represent mean and standard error with five animals studied for each condition. FIG. 35B illustrates that mRNA of collagen type la in lungs harvested 4 days after injury is reduced in response to administration of HA binding Peptide A. Collagen type la is common indicator of fibrosis in lung tissue injury models as used throughout this invention. […] The data shown are representative of three independent experiments. The ability of HA binding peptides to inhibit fibrosis is further illustrated by histological analysis. FIG. 36 are micrographs from a histological analysis of lung tissue treated with and without HA binding Peptide A after bleomycin injury. Panels (a-c) show tissue after treatment with saline alone, and panels (d-f) show tissues injured by bleomycin treatment.

The next data set relates to human fibroblasts. Nature of the data set: velocity of cell locomotion of human fibroblasts on fibronectin. In kind it is cell-based. As to conditions: 0.1-50 ng/ml, 16 hrs. The procedure: To quantify the effect of RHAMM sequence (amino acid residues 423-432; 423-432AA) to alter velocity of cell locomotion human fibroblasts were seeded on T-12.5 fibronectin coated flasks using A-MEM supplemented with glucose and 10% FBS. 2.5×10^4 cells were seeded and cells incubated for 4 hrs at 37° C. After incubation time cells were treated with increasing concentrations of RHAMM sequence peptide (423-432 AA, 0.1, 1.0, 5.0, 10 and 50 ng/ml) and cell locomotion was monitored over the period of 16 hrs on a 37° C. using 10× modulation objective (Zeiss, Germany) attached to a Zeiss Axiovert 100 inverted microscope equipped with Hoffman Modulation contrast optical filters (Greenvale, N.Y.). Cell images were captured with a CCD video camera module attached to a Hamamatsu CCD camera controller. Motility was assessed using Northern Exposure 2.9 image analysis software (Empix Imaging, Mississauga, Ontario). Nuclear displacement of 7-10 cells was measured and data were subjected to statistical analysis. Statistically significant (P<0.05) differences between means were assessed by the unpaired Student's T-test method, performed using Microsoft Excel '97 software.

Data set [6] has as its target RHAMM binding to fibronectin (Homo sapiens, UniProt P02751). The data set is described as follows: RHAMM binding to fibronectin (ELISA). The text has this:
FIG. 21 further illustrates that RHAMM binds to the CS-1 fragment of fibomectin and not to the RGDS sequence which was previously considered to be a critical sequence for fibronectin signaling of matrix protein degradation.
Background: In an ELISA, binding on a coated surface is turned into a signal by an enzyme label.

Another data set concerns invasive cells. Nature of the data set: motility of invasive cells treated with RHAMM exon peptides or antibodies (FIG. 16). The following applies: P<0.001 for peptide vs scrambled peptide. In kind it is cell-based. An excerpt:
This effect is quantified in the graph shown in 16C and is highly significant (P<0.001, student's T test).

The test system of the next data set is LR21 cells. The data set is described as follows: podosome formation in LR21 cells treated with exon 4 peptide (cortactin or CAS). The class given is cell-based. The text has this: Podsomome formation was visualized using either fluorescent cortactin or CAS, the latter being a particularly useful marker for podosomes as illustrated by the micrographs in FIG. 17B.

Data set [7] has as its target erk1 His-6-tagged fusion protein. Nature of the data set: peptide competition of erk1 His-6 binding to RHAMM v4 beads; D4 and D5 peptides present together.

Where no end group is shown, it is not given here.

Sequence of RHAMM binding to fibronectin (P02751 32-2477): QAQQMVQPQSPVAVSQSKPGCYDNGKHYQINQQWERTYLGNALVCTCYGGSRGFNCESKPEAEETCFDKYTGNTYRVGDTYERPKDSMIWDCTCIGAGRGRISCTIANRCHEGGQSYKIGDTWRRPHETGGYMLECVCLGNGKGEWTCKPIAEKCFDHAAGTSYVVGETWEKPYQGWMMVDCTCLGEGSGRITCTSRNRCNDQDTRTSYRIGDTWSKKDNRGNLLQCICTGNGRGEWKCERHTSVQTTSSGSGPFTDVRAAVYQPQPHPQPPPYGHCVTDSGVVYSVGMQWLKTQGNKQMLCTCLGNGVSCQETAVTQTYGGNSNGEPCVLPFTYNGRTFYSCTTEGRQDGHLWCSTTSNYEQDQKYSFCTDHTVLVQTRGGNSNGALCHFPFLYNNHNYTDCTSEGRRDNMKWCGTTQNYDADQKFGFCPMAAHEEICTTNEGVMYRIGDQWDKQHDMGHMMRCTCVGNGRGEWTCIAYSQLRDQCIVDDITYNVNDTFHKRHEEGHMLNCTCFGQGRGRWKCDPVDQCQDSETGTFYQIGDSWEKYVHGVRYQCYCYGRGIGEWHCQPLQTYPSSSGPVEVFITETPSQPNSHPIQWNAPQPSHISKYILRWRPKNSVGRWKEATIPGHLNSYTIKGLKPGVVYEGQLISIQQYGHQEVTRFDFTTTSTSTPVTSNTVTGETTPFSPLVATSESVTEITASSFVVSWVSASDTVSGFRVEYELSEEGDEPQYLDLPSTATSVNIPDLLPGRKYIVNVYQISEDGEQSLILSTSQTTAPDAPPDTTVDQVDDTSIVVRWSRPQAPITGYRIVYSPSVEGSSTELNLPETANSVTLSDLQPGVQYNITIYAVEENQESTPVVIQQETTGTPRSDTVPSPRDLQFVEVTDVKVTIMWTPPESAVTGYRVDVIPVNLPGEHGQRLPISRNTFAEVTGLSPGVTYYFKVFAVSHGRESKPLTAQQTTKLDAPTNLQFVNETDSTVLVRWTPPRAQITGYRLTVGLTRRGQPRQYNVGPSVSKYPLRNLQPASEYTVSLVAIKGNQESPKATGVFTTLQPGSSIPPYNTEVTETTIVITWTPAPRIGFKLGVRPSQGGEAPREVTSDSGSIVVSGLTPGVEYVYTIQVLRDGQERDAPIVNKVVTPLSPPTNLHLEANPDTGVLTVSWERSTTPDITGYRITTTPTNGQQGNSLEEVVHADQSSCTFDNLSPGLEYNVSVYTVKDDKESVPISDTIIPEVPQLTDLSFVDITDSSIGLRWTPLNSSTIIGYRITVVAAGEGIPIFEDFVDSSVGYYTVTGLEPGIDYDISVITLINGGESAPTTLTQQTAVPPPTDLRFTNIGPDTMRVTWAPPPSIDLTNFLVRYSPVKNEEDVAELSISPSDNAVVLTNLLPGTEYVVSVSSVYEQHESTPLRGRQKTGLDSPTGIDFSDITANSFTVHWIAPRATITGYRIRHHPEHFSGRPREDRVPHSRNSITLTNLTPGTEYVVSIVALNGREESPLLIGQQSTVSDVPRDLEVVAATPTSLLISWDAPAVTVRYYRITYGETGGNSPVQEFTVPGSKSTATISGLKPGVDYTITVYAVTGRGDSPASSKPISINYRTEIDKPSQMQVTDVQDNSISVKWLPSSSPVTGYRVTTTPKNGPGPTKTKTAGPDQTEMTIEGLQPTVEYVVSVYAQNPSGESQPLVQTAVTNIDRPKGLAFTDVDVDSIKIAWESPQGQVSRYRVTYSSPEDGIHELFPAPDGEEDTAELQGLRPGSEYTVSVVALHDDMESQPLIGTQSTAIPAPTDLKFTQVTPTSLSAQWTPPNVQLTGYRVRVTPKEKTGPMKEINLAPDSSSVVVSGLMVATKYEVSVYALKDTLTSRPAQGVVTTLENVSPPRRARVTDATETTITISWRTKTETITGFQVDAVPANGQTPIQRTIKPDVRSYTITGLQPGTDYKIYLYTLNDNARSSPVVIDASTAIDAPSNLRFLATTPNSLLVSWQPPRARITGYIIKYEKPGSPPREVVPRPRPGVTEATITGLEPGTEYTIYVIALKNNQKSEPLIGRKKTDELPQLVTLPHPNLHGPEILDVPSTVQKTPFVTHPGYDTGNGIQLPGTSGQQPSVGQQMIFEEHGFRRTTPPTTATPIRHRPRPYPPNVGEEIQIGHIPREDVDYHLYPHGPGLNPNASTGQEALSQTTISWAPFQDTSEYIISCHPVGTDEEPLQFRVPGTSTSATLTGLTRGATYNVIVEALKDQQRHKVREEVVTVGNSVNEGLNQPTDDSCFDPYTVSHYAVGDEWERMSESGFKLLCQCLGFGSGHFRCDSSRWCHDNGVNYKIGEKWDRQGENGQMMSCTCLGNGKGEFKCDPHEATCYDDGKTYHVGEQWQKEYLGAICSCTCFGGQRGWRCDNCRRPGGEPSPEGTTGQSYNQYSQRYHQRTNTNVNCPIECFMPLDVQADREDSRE

On to `COc1cccc(-c2cc(=O)c3ccccc3o2)c1N` [PD09058], for which the “cell invasion in vitro” value in the data set on MDA231 cells is given as “blocks cell invasion”. Moreover, the “wound repair (cell migration into wounds)” value in data set [1] is given as “blocks wound repair”. The number of podosomes entry in data set [2] is “reduces the number of podosomes”. In addition, the “cell motility / locomotion” value in data set [3] is recorded as “strongly reduces cellular locomotion”.
“CSTMMSRSHKTRSHHV [P-peptide, CSTMMSRSHKTRSHHV]”: the toxicity result in the data set on NOD mice was “absence of any toxicity”. Besides, the “toxicological or lethal effects on animals” value in the data set on ND4 transgenic mice is recorded as “without observing toxicological or lethal effects”.
In the case of “KQKIKHVVKLKDENSQLKSEVSKLRCQLAKKK [P-32, specific RHAMM region]”, the “decrease in mean clinical score” value in the data set with EAE in SJL/J mice came out at 20%.
“RGGGGGGGR (Peptide that binds a hyalauronan) [peptide D, reference compound]”: the “binding to HA” value in [4] is listed as “does not bind HA”. In addition, the “infiltration of macrophages in wounded biopsies (Glucosimimidase activity)” value (“infiltration of macrophages” below) in the data set on excisional skin wound is “does not inhibit macrophage infiltration”.
As to “RGGGRGGGR (Peptide that binds a hyalauronan) [C]”, in the data set with excisional skin wound, the “infiltration of macrophages” value is “inhibited the infiltration of macrophages”.
Same read-out and setting: next, “RGGGRGGRR (Peptide that binds a hyalauronan) [peptide B]”: “inhibited the infiltration of macrophages”.
As to “RGGGRGRRR (Peptide that binds a hyalauronan) [Peptide A]”, the “infiltration of macrophages” value in the data set with excisional skin wound is “inhibited the infiltration of macrophages”. In addition, the “increase in collagen type la mRNA in lungs” value in [5] (4 days after injury) is “completely inhibited”. The “N-acetyl-β-glucosamimidase activity of BAL cells” value in data set [5] (7 days after bleomycin injury) is given as “significantly decreased glucosamimidase activity”. Further, in data set [5] (after bleomycin injury), the lung histology result was “normal lung architecture”. Also, the “motility of BAL cells (macrophages)” value in data set [5] (four days after bleomycin injury, peptide given prior to injury) is recorded as “significantly lower cell locomotion”.
As for “RHAMM sequence (423-432 AA): RHAMM sequence peptide, amino acid residues 423-432 (SEQ ID NO 24) (KLRSQLVKRKQ; Homo sapien)”, the “inhibition of migration of human fibroblasts” value in the data set on human fibroblasts is on record as “up to 40%”.
“SEQ. ID NO: 15: peptide mimicking RHAMM exon 3, used to raise anti-exon 3 antibodies (KLQATQKDLTESKG; listed as Mus musculus)”: in [6], the “binding of RHAMM to fibronectin” value was “able to block the binding of intact RHAMM to fibronectin”. Besides, the “motility of invasive cells” value in the data set with invasive cells is on record as “block the motility of invasive cells”.
With “SEQ. ID NO: 16: peptide from murine RHAMM exon 4 (VSIEKEKIDEKCETEKLLEYIQEIS; listed as Mus musculus)”, the formation of podosomes entry with LR21 cells is given as “blocks the formation of podosomes”.
QEKYNDTAQSLRDVTAQLESV [D4 peptide of RHAMM] registered a reduction of erk1 binding to v4 in [7] of 90%.
Still for that read-out and setting: next, KQKIKHVVKLKDENSQLKSEVSKLRSQLVKRK [D5 peptide of RHAMM]: 90%.
